{"source": "paper PMC10569065", "about": "“Major distinctions between the two oligopeptide permease systems of Bacillus subtilis with respect to signaling, development and evolutionary divergence” (Microbiology, 2023)", "key": {"[1]": {"test_system": "Opp permease (Opp-only strain O+;A-, AES7413, expressing RapA)", "test": "Co-culture PspoIIG-3×yfp early sporulation reporter, RapA strain, Opp-only", "type": "cell-based, Bacillus subtilis", "conditions": "10 µM peptide, SMM with very low glucose, 3 h, ON = 10-fold higher than background", "method": "(§1) Flow cytometry was performed to quantify gene expression at the single-cell level, using a Beckman-Coulter Gallios flow-cytometer equipped with four lasers (405 nm, 488 nm co-linear with 561 nm, 638 nm). The emission filters used were as follows: BFP – 450/50, YFP – 525/40, mCherry – 620/30. Two methods were used to distinguish between co-cultured cells. Strains coding for rapP where transformed by plasmids carrying either an mCherry or mTag2-BFP genes under a constitutive promoter. For the rest of the strains, the same constructs were integrated into the bacterial genome at the lacA locus. YFP levels were measured relative to a set voltage, which was approximately set such that a value of 1 will be given to autofluorescence of strain PY79 in SMM medium.\n(§2) Cells were grown to OD600 <0.1, in SMM medium containing trace elements and glucose, then diluted by a factor of 10^6 or 10^7 into fresh SMM medium and grown for about 16 h in exponential phase. […] At each time point OD600nm was measured using a spectrophotometer and fluorescence was measured using a flow cytometry. […]\n(§3) Fig. 5. […] ON cells are determined as the cells that have expressed P spoIIG-3 ×yfp 10-fold higher than background. […] YFP levels were measured for single cells using flow cytometry 3 h after the peptide was added to co-culture of both strains, App and Opp. […]"}, "[2]": {"test_system": "App permease (App-only strain O-;A+, AES7410, expressing RapA)", "test": "Co-culture PspoIIG-3×yfp early sporulation reporter, RapA strain, App-only", "type": "cell-based, Bacillus subtilis", "conditions": "maximal peptide concentration, SMM with very low glucose, 3 h", "method": "as §1, §2, §3"}, "[3]": {"biological_target": "T1, Opp permease (Opp-only strain O+;A-, expressing RapC, RapF or RapP) (Bacillus subtilis, UniProt P24141)", "T1 construct": "full deletion mutants of the App (Opp-only; O^+;A^-) and Opp (App-only; O^-;A^+) operons; endogenous in cells; host or cells: Bacillus subtilis 3610 (plasmid-free), Opp-only strains O+;A- (AES7204, AES7202, AES5524, AES7207)", "T1 sequence (P24141 21-545)": "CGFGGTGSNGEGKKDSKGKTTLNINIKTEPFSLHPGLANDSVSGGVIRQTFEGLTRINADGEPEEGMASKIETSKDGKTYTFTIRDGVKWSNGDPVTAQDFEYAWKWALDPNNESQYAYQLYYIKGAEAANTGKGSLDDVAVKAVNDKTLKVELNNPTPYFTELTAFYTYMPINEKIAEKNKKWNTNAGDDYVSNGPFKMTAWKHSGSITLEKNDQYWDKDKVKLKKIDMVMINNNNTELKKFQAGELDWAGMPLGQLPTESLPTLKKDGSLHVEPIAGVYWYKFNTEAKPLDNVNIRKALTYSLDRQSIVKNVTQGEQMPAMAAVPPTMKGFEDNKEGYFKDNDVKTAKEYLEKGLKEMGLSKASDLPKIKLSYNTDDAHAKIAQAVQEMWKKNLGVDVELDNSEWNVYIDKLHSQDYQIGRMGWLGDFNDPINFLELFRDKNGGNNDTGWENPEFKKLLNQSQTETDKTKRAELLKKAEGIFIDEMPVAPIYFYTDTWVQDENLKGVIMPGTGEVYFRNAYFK", "test": "Co-culture PsrfA-3×yfp reporter response to added Phr peptide, Opp-only strain", "type": "cell-based", "method": "as §1\n(§4) Cells were grown to OD600 <0.1, in SMM medium containing trace elements and glucose, then diluted by a factor of 10^6 or 10^7 into fresh SMM medium and grown for about 16 h in exponential phase. In co-culture gene-expression experiments, each strain was grown from a single colony in SMM to OD600 <0.1 or diluted to 0.1 prior to strain mixing. The two strains were mixed at equal volumes and then diluted by a factor of 10^6 or 10^7 in fresh SMM medium. Samples were taken from cultures at several time-points. At each time point OD600nm was measured using a spectrophotometer and fluorescence was measured using a flow cytometry. […]"}, "[4]": {"test_system": "App permease (App-only strain O-;A+, expressing RapC, RapF or RapP)", "test": "Co-culture PsrfA-3×yfp reporter response to added Phr peptide, App-only strain", "type": "cell-based, Bacillus subtilis", "conditions": "co-culture with Opp-only strain, SMM, 3 h after peptide addition, PhrP increase at concentrations higher than 1 µM", "method": "as §1, §4"}, "[5]": {"test_system": "App permease", "conditions": "previous work; cited from earlier work", "text": "App was also as effective as Opp in uptaking the PapR pentapeptide, but not in importing the PhrC/F/P pentapeptides. Previous work has identified several App transported peptides, including the nonapeptide […] [[2, 50]]."}, "[6]": {"biological_target": "T2, App permease, App^3610 allele (App-only strain O-;A+, AES7075, expressing PlcR) (Bacillus subtilis, UniProt P42061)", "T2 construct": "full deletion mutants of the App (Opp-only; O^+;A^-) and Opp (App-only; O^-;A^+) operons; endogenous in cells; host or cells: Bacillus subtilis 3610 (plasmid-free), App-only strain O-;A+ (AES7075)", "T2 sequence (P42061 24-543)": "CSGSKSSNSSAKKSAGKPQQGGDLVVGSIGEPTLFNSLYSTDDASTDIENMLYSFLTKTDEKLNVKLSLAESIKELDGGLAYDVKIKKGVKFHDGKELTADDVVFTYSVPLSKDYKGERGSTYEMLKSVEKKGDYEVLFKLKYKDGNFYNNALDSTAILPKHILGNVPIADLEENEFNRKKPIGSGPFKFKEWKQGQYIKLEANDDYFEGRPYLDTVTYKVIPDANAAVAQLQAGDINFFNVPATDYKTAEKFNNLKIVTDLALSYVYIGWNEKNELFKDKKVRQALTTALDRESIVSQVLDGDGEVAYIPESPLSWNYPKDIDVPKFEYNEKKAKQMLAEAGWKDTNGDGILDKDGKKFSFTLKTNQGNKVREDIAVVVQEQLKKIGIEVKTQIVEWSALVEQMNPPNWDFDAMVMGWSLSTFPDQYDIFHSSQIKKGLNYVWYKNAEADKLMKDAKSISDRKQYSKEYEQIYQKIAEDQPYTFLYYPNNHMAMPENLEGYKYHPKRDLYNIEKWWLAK", "test": "Co-culture PplcA-3×yfp reporter of PlcR receivers, App-only strain (App3610)", "type": "cell-based", "method": "as §1\n(§5) Cells were grown to OD600 <0.1, in SMM medium containing trace elements and glucose, then diluted by a factor of 10^6 or 10^7 into fresh SMM medium and grown for about 16 h in exponential phase. In co-culture gene-expression experiments, each strain was grown from a single colony in SMM to OD600 <0.1 or diluted to 0.1 prior to strain mixing. […] At each time point OD600nm was measured using a spectrophotometer and fluorescence was measured using a flow cytometry. […]\n(§6) Fig. 8. […] YFP levels were measured for single cells using flow cytometry 3 h after the peptide was added. […] Biological repeats at the same concentrations were measured on different days. […]"}, "[7]": {"biological_target": "T3, Opp permease (Opp-only strain O+;A-, AES7207, expressing PlcR) (Bacillus subtilis, UniProt P24141)", "T3 construct": "full deletion mutants of the App (Opp-only; O^+;A^-) and Opp (App-only; O^-;A^+) operons; endogenous in cells; host or cells: Bacillus subtilis 3610 (plasmid-free), Opp-only strains O+;A- (AES7204, AES7202, AES5524, AES7207)", "T3 sequence (P24141 21-545)": "as the sequence (P24141 21-545) above", "test": "Co-culture PplcA-3×yfp reporter of PlcR receivers, Opp-only strain", "type": "cell-based", "method": "as §1, §5, §6"}, "[8]": {"test_system": "ɸ3T infection of B. subtilis 3610 plasmid-free permease variants", "test": "Phage ɸ3T infection dynamics (optical density) in presence of arbitrium peptide", "type": "cell-based, Bacillus subtilis", "conditions": "ɸ3T m.o.i.=0.1 in LB", "method": "Overnight culture grown in LB of the appropriate strain was diluted by a factor of 1 : 100 into fresh containing 0.1 mM MnCl2 and 5 mM MgCl2. The strains were then grown at 37 °C with shaking at 220 r.p.m. Upon reaching an of OD600=0.3, the strains infected with free ɸ3T at m.o.i.=0.1 and supplemented with 10 µM of the synthetic peptide SAIRGA. Optical density measurements at a wavelength of 600 nm were performed in a 96-well plate using a plate reader (PerkinElmer VICTOR Nivo 622 Multimode Plate Reader).\nWe wondered whether App is capable of transporting the signalling molecules of arbitrium, the second RRNPP system found in B. subtilis phages. The B. subtilis phage φ3T utilizes an arbitrium system with the small peptide SAIRGA to control the lysis-lysogeny and induction decisions [[17, 22]]. Increased signal concentration tilts the decision towards lysogeny. To further examine the impact of App and Opp on quorum-sensing-dependent activation of φ3T horizontal transfer, we utilized a plate reader to examine the phage infection dynamics by monitoring its impact on optical density during infection of the different variants in Lysogeny Broth (LB) medium.\nFig. 4. […] Growth curves are represented as the mean optical density (dark colour) and its error (light grey) as a function of time (minutes) taken using a plate-reader. […]"}}, "note": "Where no end group is shown, it is not given here.", "data": [{"substance": "ARNQT [PhrA, synthetic PhrA signalling pentapeptide (ARNQT) of the RapA-PhrA system]", "values": [{"measurement": "percentage of cells with high YFP levels (ON cells, PspoIIG-3×yfp)", "setting": "[1]", "result": "~ 20%"}, {"measurement": "fraction of sporulating cells (ON cells, PspoIIG-3×yfp)", "setting": "[2]", "result": 0.2, "unit": "%"}]}, {"substance": "ERGMT [PhrC]", "values": [{"measurement": "EC50", "setting": "[3]", "result": "< 10", "unit": "nM"}, {"measurement": "YFP levels (PsrfA-3×yfp) with increasing peptide concentrations, App-only strains", "setting": "[4]", "result": "marginally increased"}]}, {"substance": "FGFG [tetrapeptide reported in previous work as transported by App]", "values": [{"measurement": "transport by App", "setting": "[5]", "result": "able to transport"}]}, {"substance": "FLEEI [pentapeptide reported in previous work as transported by App]", "values": [{"measurement": "transport by App", "setting": "[5]", "result": "able to transport"}]}, {"substance": "LPFEF [penta-PapR]", "values": [{"measurement": "EC50", "setting": "[6]", "result": 290, "unit": "nM"}, {"measurement": "EC50", "setting": "[7]", "result": 650, "unit": "nM"}]}, {"substance": "QRGMI [PhrF]", "values": [{"measurement": "EC50", "setting": "[3]", "result": "< 10", "unit": "nM"}, {"measurement": "YFP levels (PsrfA-3×yfp) with increasing peptide concentrations, App-only strains", "setting": "[4]", "result": "marginally increased"}]}, {"substance": "SAIRGA [synthetic arbitrium hexapeptide of B. subtilis phage φ3T]", "values": [{"measurement": "optical density on ɸ3T infection with peptide, App-only (O-;A+)", "setting": "[8]; AES6372, 10 µM peptide", "result": "marked reduction in optical density"}, {"measurement": "lysis on ɸ3T infection with peptide, WT (O+;A+)", "setting": "[8]; WT DS2569, 10 µM peptide added at OD600=0.3, plate reader OD600", "result": "did not lyse"}]}]}
